Data reported in publication PMC10974290, “Biocatalytic Synthesis of Coumarin S-Glycosides: Towards Non-Cytotoxic Probes for Biomedical Imaging and Sensing” (Molecules, 2024).
Marks after values point to notes of the source that are not given here.

Experiments:
[1] = Fluorescence excitation/emission spectroscopy and relative quantum yield; assay type: physicochemical; conditions: 7-MC in presence of 10 mM DTT; for Fluorescence λmax ex: emission at 420 nm; for Fluorescence λmax em: excitation at 280 nm
Description: The values determined were close to those observed for the 4-MUB fluorophore.
Both absorbance and fluorescence spectra were measured on a Tecan […] M PLEX 200 Pro plate reader equipped with monochromator allowing a scan from 230 to 1000 nm. […] The solutions were then transferred to a Corning (Corning, NY, USA) UV-transparent 96-well plate. Absorbance spectra were recorded from 230 to 800 nm. Emission fluorescence spectra were recorded from 320 to 800 nm, under excitation at 280 nm. Excitation fluorescence spectra were recorded from 230 to 380 nm for an emission at 420 nm. All spectra were recorded with a wavelength step size of 2 nm. Data processing was performed with Excel software 2016. Fluorescence spectra are presented as normalized spectra ranging from 0 to 1. The relative quantum yields were calculated according to Equation (1):(1) ΦT=(AR/AT)×(FT/FR)×(nT/nR)×ΦR where Φ is the fluorescence quantum yield, A is the absorbance at the excitation wavelength, F is the area under the corrected emission curve, and n is the refractive index of the solvent for the test compound (T) and the reference (R). The 4-MUB value in DMF was used as the reference. The LOD (resp. LOQ) values were determined as the minimal concentration of product S-3 required to yield a fluorescence that was twice greater than (respectively, 5-times that of) the fluorescence noise on a sample containing PBS, using an excitation wavelength of 280 nm and an emission wavelength of 386 nm (Figure S44).

[2] = set-up: method as in doi:10.1016/1010-6030(89)87054-6; conditions: DMF; ref [50]; cited from earlier work
[3] = UV-visible absorbance spectroscopy; assay type: physicochemical; conditions: 0.1 mM
Description: Subsequently, the analysis was carried out under two distinct conditions: firstly, in DMF, at a final concentration of 0.1 mM; and secondly, in a mixture PBS:DMF (99:1%), at the same final concentration of 0.1 mM. These two experimental setups provided valuable insights into the spectral characteristics of the compounds in both a pure organic solvent and a solvent system closely resembling physiological conditions. The maxima absorption wavelengths are compiled in Table 3. These bands were attributed to transitions within the benzene and pyrone moieties, considered together as a single chromophore. […] Similarly, 7-MC and S-1 to S-6 compounds also absorb in this UV range (λmax = 328–330 nm). […] In the organic solvent, these values are found to be higher compared to those calculated for 4-MUB and 7-MC. Conversely, in PBS, the extinction coefficients for S-glycosides are lower compared to the parent thiol 7-MC. This highlights the profound impact of glycosylation on absorption properties, as well as the importance of solvent choice.
Both absorbance and fluorescence spectra were measured on a Tecan […] M PLEX 200 Pro plate reader equipped with monochromator allowing a scan from 230 to 1000 nm. All synthesized molecules were initially dissolved in 10 mM DMF and subsequently diluted in freshly prepared PBS (pH = 7.4) to achieve a final concentration of 0.1 mM. The solutions were then transferred to a Corning (Corning, NY, USA) UV-transparent 96-well plate. Absorbance spectra were recorded from 230 to 800 nm. Emission fluorescence spectra were recorded from 320 to 800 nm, under excitation at 280 nm. Excitation fluorescence spectra were recorded from 230 to 380 nm for an emission at 420 nm. All spectra were recorded with a wavelength step size of 2 nm. Data processing was performed with Excel software 2016. Fluorescence spectra are presented as normalized spectra ranging from 0 to 1. The relative quantum yields were calculated according to Equation (1):(1) ΦT=(AR/AT)×(FT/FR)×[…]×ΦR where Φ is the fluorescence quantum yield, A is the absorbance at the excitation wavelength, F is the area under the corrected emission curve, and n is the refractive index of the solvent for the test compound (T) and the reference (R). The 4-MUB value in DMF was used as the reference. The LOD (resp. LOQ) values were determined as the minimal concentration of product S-3 required to yield a fluorescence that was twice greater than (respectively, 5-times that of) the fluorescence noise on a sample containing PBS, using an excitation wavelength of 280 nm and an emission wavelength of 386 nm (Figure S44).

[4] = test system: MCF-7 (breast adenocarcinoma); experiment: MTT cell proliferation assay, MCF-7; assay type: cell-based; conditions: Homo sapiens, MCF7, 72 h incubation, 95% confidence interval in parentheses
Description: (§1) To use these S-glycosidic compounds in cellulo, the potential impact of the glycosidic linkage nature on the anticancer activity was assessed. The S-glycoside derivatives and the 7-MC were tested against four human cancer cell lines and a healthy one, namely A549 (lung carcinoma), HS-683 (glioma cancer), MCF-7 (breast adenocarcinoma), SK-MEL-28 (melanoma skin cancer), and HaCaT (keratinocyte normal skin), using MTT (thiazolyl blue tetrazolium bromide, Sigma-Aldrich, St. Louis, MO, USA) assay, as previously described in the literature. The selected reference drugs were 5-fluorouracil (5-FU) and etoposide.
(§2) Cell proliferation of five distinct cell lines was evaluated using the colorimetric MTT (thiazolyl blue tetrazolium bromide, Sigma) assay. Human keratinocyte normal skin HaCaT was cultivated in DMEM supplemented with 4.5 g/L glucose, 2 mM L-glutamine, and 10% FBS. Cancer cell lines and their respective growth media were obtained from CLS Cell Line Service GmbH (Eppelheim, Germany). Specifically, human skin melanoma SK-MEL-28 and human brain glioma HS683 were cultivated in DMEM with identical supplements as HaCaT cells. The human lung carcinoma cell line A-549 was grown in DMEM/Ham’s F12 (1:1) medium supplemented with 2 mM L-glutamine and 5% FBS. Additionally, human breast adenoma carcinoma MCF-7 cells were sustained in EMEM supplemented with 2 mM L-glutamine, sodium pyruvate, non-essential amino acids (NEAAs), 10 µg/mL insulin human, and 10% FBS. The MTT assay relies on the reduction of the yellow product thiazolyl blue tetrazolium bromide (MTT) to formazan, a purple-blue product, by mitochondrial dehydrogenases in metabolically active cells. The number of living cells after incubation in the presence (or absence, control) of the tested molecules is directly proportional to the blue color, which was measured by spectrophotometry. To perform the assay, cells were initially seeded at a density of 2500 cells/mL in 96-well culture plates (Nunc™ Edge 2.0, Fisher) and allowed to adhere and proliferate over a 24-hour incubation period. Following this, the cells were treated with various concentrations of the tested compounds, which were previously prepared as serial dilutions and dissolved in 0.1% DMSO. These stable solutions guarantee the consistency of experimental conditions over extended periods. Each concentration of the tested compounds underwent triplicate testing (n = 3), and cells were subsequently incubated for 72 h to allow for thorough evaluation. Following this incubation period, MTT reagent (5 mg/mL solution in PBS) was introduced to each well (10% v/v), and cells were further incubated for 4 h. Then, the culture medium was carefully removed, and the resulting blue formazan crystals were dissolved in 100 µL of 100% DMSO. Absorbance readings were taken at 540 nm, referencing a wavelength of 620 nm, using a spectrophotometer. In determining the IC50, the absorbance of serial dilutions of each cell line, treated under identical conditions but without the presence of the tested compounds, was measured.

HS683 (brain glioma) = experiment: MTT cell proliferation assay, HS683; assay type: cell-based; conditions: Homo sapiens, Hs 683, 72 h incubation, 95% confidence interval in parentheses
Description: as §1, §2

[5] = test system: HaCaT (keratinocyte normal skin); experiment: MTT cell proliferation assay, HaCaT; assay type: cell-based; conditions: Homo sapiens, 72 h incubation, 95% confidence interval in parentheses
Description: as §1, §2

[6] = test system: SK-MEL-28 (melanoma skin cancer); experiment: MTT cell proliferation assay, SK-MEL-28; assay type: cell-based; conditions: Homo sapiens, 72 h incubation, 95% confidence interval in parentheses
Description: as §1, §2

A-549 (lung carcinoma) = experiment: MTT cell proliferation assay, A-549; assay type: cell-based, human; conditions: Homo sapiens, A549, 72 h, 72 h incubation, 95% confidence interval in parentheses
Description: as §1, with “literature.” for “literature. The selected reference drugs were 5-fluorouracil (5-FU) and etoposide.”
as §2, with “These stable solutions guarantee the consistency of experimental conditions over extended periods.” left out

[7] = DMF, 7-MC in presence of 10 mM DTT

| SMILES | Fluorescence λmax ex ([1]; DMF, 0.1 mM) [nm] | Fluorescence λmax em ([1]; DMF, 0.1 mM) [nm] | Fluorescence λmax ex ([1]; PBS pH 7.4, 0.1 mM) [nm] | Fluorescence λmax em ([1]; PBS pH 7.4, 0.1 mM) [nm] | Relative quantum yield Φ ([1]; PBS, relative to 4-MUB in DMF) | Quantum yield Φ (reference value) [2] | Absorbance ε (molar absorption coefficient) [3, 7] | Absorbance λmax abs [3, 7] [nm] | emax (molar absorption coefficient) ([3]; PBS 1x (pH = 7.4), 7-MC + DTT 10 mM) | Absorbance λmax abs ([3]; PBS (PBS:DMF 99:1, pH 7.4), 7-MC in presence of 10 mM DTT) [nm] | IC50 [4] [µM] | IC50 (HS683 (brain glioma)) [µM] | IC50 [5] [µM] | IC50 [6] [µM] | IC50 (A-549 (lung carcinoma)) [µM] |
| --- | --- | --- | --- | --- | --- | --- | --- | --- | --- | --- | --- | --- | --- | --- | --- |
| Cc1cc(=O)oc2cc(O)ccc12 [Compound 4-MUB, 4-methylumbelliferone, reference compound] | 320 | 380 | 333 | 448 | 0.293 | 0.081 ^a | 17.0 10^3 M^−1 cm^−1 | 322 | 20129,15057 cm-1 M-1 | 324 | – | – | – | – | – |
| O=c1[nH]cc(F)c(=O)[nH]1 [Compound 5-FU, 5-fluorouracil, reference compound] | – | – | – | – | – | – | – | – | – | – | 4.8 | 37 | 0.4 | 6.6 | – |
| COc1cc([C@@H]2c3cc4c(cc3[C@@H](O[C@@H]3O[C@@H]5CO[C@@H](C)O[C@H]5[C@H](O)[C@H]3O)[C@H]3COC(=O)[C@H]23)OCO4)cc(OC)c1O [Etoposide, etoposide, reference compound] | – | – | – | – | – | – | – | – | – | – | 3.9 | 1.6 | 0.5 | 3.2 | 1.6 |
